Converted amounts (≈) assume the structure as drawn. Where two headings read alike, the source gives them in different places.
Key:
[1] = tested on: M. smegmatis; type: cell-based, Mycobacterium smegmatis; details: at 0.1–1 µg/ml (not shown)
[2] = tested on: Micrococcus luteus; assay: microbe, parasite or virus in culture; type: cell-based; details: for MIC: Micrococcus luteus, lowest concentration which suppresses growth, determined during 24 hours, NI = no inhibition was observed; for effect on M. luteus growth: NB liquid medium
[3] = tested on: M. smegmatis "non-culturable" cells; type: cell-based, Mycobacterium smegmatis; details: MPN assay
[4] = target: T1, Rpf Sm (Micrococcus luteus, UniProt O86308); assay: Muralytic activity of Rpf, 4-MUF-3-NAG hydrolysis; type: biochemical, M. luteus
T1 construct: His-tag (inferred from the pET19b vector and the Ni2+-chelation purification); made in house; host or cells: E. coli HSM174 (DE3)
Procedure: The truncated form of M.luteus Rpf (RpfSm) was used for the analysis. The truncated protein contained conserved Rpf domain and additional 20 amino acids of the gene product, corresponding to the following amino acid sequence:
To determine a muralytic activity of the recombinant Rpfs', 4-methylumbelliferyl-β-D-N, N′, N″-triacetylchitotrioside (4-MUF-3-NAG) (“Sigma”, Germany) was applied. […] A number of experiments were performed in the presence of NPT compounds, in concentration range of 0.5–10 µg/ml. After 3 hours of incubation at 37°C, 2 µl of 10 M NaOH was added and the samples were frozen and kept at −20°C. […] The intensity of fluorescence was detected by the RF-5301PC fluorimeter (“SHIMADZU”, Japan) using excitation wavelength of 364 nm and a read-out of 448 nm.

[5] = tested on: M. tuberculosis "non-culturable" cells; type: cell-based, Mycobacterium tuberculosis; details: for effect on resuscitation of M. tuberculosis "non-culturable" cells: 10 µg/ml, MPN assay, versus untreated resuscitating cells; for MPN, logarithmic transformation of cell concentration (cells/ml): inhibitor 10 µg/ml
[6] = target: ΔDUFRpf B (Mycobacterium tuberculosis, UniProt P9WG29); type: binding, M. tuberculosis
[7] = tested on: Trypsin(3.4.21.4); assay: Trypsin activity (fluorimetric); type: biochemical; details: control 10
Procedure: (§1) Alcoholdehydrohenase(1.1.1.1) activity: ADH was dissolved in 50 mM phospahe buffer pH 7 at the concentration 10 µg/ml. The rate of the reaction was judged by transformation of NAD^+ (1 mM) into NADH+H^+. As the substrate ethanol was used. Activity was measured by OD340. Laccase(1.10.3.2) activity: Laccase was dissolved in the 50 mM citrate-phosphate buffer, pH4.5 at concentration 9 µg/ml. Pyrocatechin was used at concentration 11 µg/ml. Activity was measured by OD410. Trypsin(3.4.21.4) activity: The enzyme at concentration 8.0 µg/ml was dissolved in 50 mM Tris-HCl buffer pH 8.0. Concentration of the substrate (N-CBz-Gly-Gly-Arg-β-naphthylamide - Sigma-Aldrich)- 11 µg/ml. Registration of the kinetic curves was made fluorimetrically - excitation wavelength - 330 nm; emission - 420 nm. (0.02 MB DOC) Click here for additional data file.

[8] = tested on: Alcoholdehydrohenase(1.1.1.1); assay: Alcoholdehydrogenase activity (NAD+ to NADH, OD340); type: biochemical; details: control 1.7
Procedure: as §1

[9] = tested on: Laccase(1.10.3.2); assay: Laccase activity (pyrocatechin, OD410); type: biochemical; details: control 3.6
Procedure: as §1

[10] = pH 6.0, 3 hours at 37°C, NI = no inhibition was observed, read-out: 4-MUF-3-NAG hydrolysis IC50, Rpf Sm (converted)

T1 sequence (O86308 42-134): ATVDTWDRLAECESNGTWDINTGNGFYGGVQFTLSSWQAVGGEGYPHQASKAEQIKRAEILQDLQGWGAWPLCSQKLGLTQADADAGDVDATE
Sequence of ΔDUFRpf B (P9WG29 whole entry, looked up, stated change not applied): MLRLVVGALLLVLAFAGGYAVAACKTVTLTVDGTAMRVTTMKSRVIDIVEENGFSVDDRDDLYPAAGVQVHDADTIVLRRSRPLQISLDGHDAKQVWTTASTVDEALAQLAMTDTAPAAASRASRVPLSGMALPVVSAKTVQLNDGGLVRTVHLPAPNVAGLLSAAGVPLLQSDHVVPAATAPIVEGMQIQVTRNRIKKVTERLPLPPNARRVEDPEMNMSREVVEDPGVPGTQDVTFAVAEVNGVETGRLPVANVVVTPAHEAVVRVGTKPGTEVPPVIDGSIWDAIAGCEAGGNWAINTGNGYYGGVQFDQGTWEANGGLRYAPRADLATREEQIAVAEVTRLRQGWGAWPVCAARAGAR

Structure (SMILES) | growth of active cells of M. smegmatis [1] | MIC [2] | concentrations active in suppressing resuscitation of M. smegmatis [3] | IC50 [4] | effect on resuscitation of M. tuberculosis "non-culturable" cells [5] | MPN, logarithmic transformation of cell concentration (cells/ml) ([5]; time 0 days) | MPN, logarithmic transformation of cell concentration (cells/ml) ([5]; time 14 days) | MPN, logarithmic transformation of cell concentration (cells/ml) ([5]; time 19 days) | MPN, logarithmic transformation of cell concentration (cells/ml) ([5]; time 21 days) | MPN, logarithmic transformation of cell concentration (cells/ml) ([5]; time 23 days) | MPN, logarithmic transformation of cell concentration (cells/ml) ([5]; time 27 days) | MPN, logarithmic transformation of cell concentration (cells/ml) ([5]; time 30 days) | MPN, logarithmic transformation of cell concentration (cells/ml) ([5]; time 33 days) | MPN, logarithmic transformation of cell concentration (cells/ml) ([5]; time 36 days) | MPN, logarithmic transformation of cell concentration (cells/ml) ([5]; time 40 days) | IC50 [4, 10] | melting point | also measured
COC(=O)c1ccc(SC#N)c([N+](=O)[O-])c1 [IX, 3-Nitro-4-thiocyanatobenzoic acid methyl ester] | did not inhibit growth | 5 to 10 µg/mL (≈ 21 to 42 µM) | 0.1 to 1 µg/mL | 23.5 µM | increased time which need for developing of visible growth in the MPN assay and decreased the final values of MPN | 3.48 | 3.48 | 3.48 | 3.56 | 3.96 | 4.32 | 5.66 | 5.66 | 5.66 | 5.66 | – | – | –
[I-].[K+] [iodide, reference compound] | – | – | – | – | – | – | – | – | – | – | – | – | – | – | – | – | – | accessible fraction of ΔDUFRpfB tryptophanes (fa) ([6]; modified Stern-Volmer equation, excitation 280 nm, emission 340 nm): ~40%
CCOC(=O)c1ccc(SC#N)c([N+](=O)[O-])c1 [X, 3-nitro-4-thiocyanatobenzoic acid ethyl ester] | – | 10 µg/mL (≈ 39.6 µM) | – | – | increased time which need for developing of visible growth in the MPN assay and decreased the final values of MPN | 3.48 | 3.48 | 3.48 | 3.48 | 3.48 | 4.36 | 4.97 | 5.38 | 5.38 | 5.38 | 10.3 µM | – | –
N#CSc1ccc(C(=O)O)cc1[N+](=O)[O-] [VIII, 3-Nitro-4-thiocyanatobenzoic acid] | – | – | – | – | had no influence on the resuscitation kinetics | – | – | – | – | – | – | – | – | – | – | – | 220 to 224 °C | effect on M. luteus growth [2]: had no effect on M. luteus growth; effect on resuscitation of M. smegmatis "non-culturable" cells ([3]; inhibitors at 1 µg/ml, 2 weeks at 37°C): failure; interaction with the buried tryptophanes of ΔDUFRpfB ([6]; fluorescence studies): doesn't interact with the buried tryptophanes
CC(=O)c1ccc(SC#N)c([N+](=O)[O-])c1 [VI, 4-Acetyl-2-nitrophenyl thiocyanate] | – | 5 µg/mL (≈ 22.5 µM) | – | 9.9 µM | – | 3.48 | 3.48 | 3.48 | 3.48 | 3.56 | 3.96 | 4.66 | 5.38 | 5.97 | 6.18 | – | 96 to 98 °C | –
CC(C)Nc1ncnc(SC#N)c1[N+](=O)[O-] [II, 4-Isopropylamino-5-nitro-6-thiocyanatopyrimidine] | – | – | – | – | – | – | – | – | – | – | – | – | – | – | – | – | 96 to 98 °C | effect on M. luteus growth [2]: had no effect on M. luteus growth
N#CSc1cc(SC#N)c([N+](=O)[O-])cc1[N+](=O)[O-] [III, 1,5-Dinitro-2,4-dithiocyanatobenzene] | did not inhibit growth | 5 µg/mL (≈ 17.7 µM) | 0.1 to 1 µg/mL | – | practically did not influence resuscitation | 3.48 | 3.48 | 3.86 | 4.63 | 4.63 | 5.66 | 6.38 | 6.38 | 6.38 | 6.38 | 4.25 µM | 78 to 80 °C | τ1/2, time needed to achieve a 50% level of substrate conversion, Trypsin ([7]; compound 4 µg/ml): 10 s; τ1/2, time needed to achieve a 50% level of substrate conversion, Trypsin ([7]; compound 10 µg/ml): 10 s; τ1/2, time needed to achieve a 50% level of substrate conversion, Alchoholdehydrohenase ([8]; compound 4 µg/ml): 1.7 s; τ1/2, time needed to achieve a 50% level of substrate conversion, Alchoholdehydrohenase ([8]; compound 10 µg/ml): 1.7 s; τ1/2, time needed to achieve a 50% level of substrate conversion, Laccase ([9]; compound 4 µg/ml): 3.6 s; τ1/2, time needed to achieve a 50% level of substrate conversion, Laccase ([9]; compound 10 µg/ml): 3.5 s
N#CSc1ccc(C#N)cc1[N+](=O)[O-] [V, 3-Nitro-4-thiocyanobenzonitryl] | – | 1 to 5 µg/mL (≈ 4.87 to 24.4 µM) | – | 25.3 µM | – | 3.48 | 3.48 | 3.48 | 3.48 | 3.48 | 3.86 | 4.30 | 5.66 | 5.66 | 5.66 | – | 143 to 145 °C | –
N#CSc1ccc(C(F)(F)F)cc1[N+](=O)[O-] [IV, 2-Nitro-4-(trifluoromethyl)-phenylthiocyanate] | did not inhibit growth | 5 µg/mL (≈ 20.1 µM) | 0.1 to 1 µg/mL | – | increased time which need for developing of visible growth in the MPN assay and decreased the final values of MPN | 3.48 | 3.48 | 3.56 | 3.96 | 4.36 | 5.38 | 5.66 | 5.66 | 5.66 | 5.66 | 21.4 µM | 78 to 81 °C | –
COc1ncnc(SC#N)c1[N+](=O)[O-] [I, 4-Methoxy-5-nitro-6-thiocyanatopyrimidine] | – | – | – | – | had no influence on the resuscitation kinetics | – | – | – | – | – | – | – | – | – | – | 25 µM | 54 to 56 °C | –

— article PMC2790607, “Finding of the Low Molecular Weight Inhibitors of Resuscitation Promoting Factor Enzymatic and Resuscitation Activity” (PLoS ONE, 2009)
